According to PubChem BioAssay AID2060900 (Molecular Pharmacology Branch, DTP, NCI, 2025):

Tested on: 521955-158-R2-J5-PDC complex spheroids, viability
Test: Anticancer human tumor 521955-158-R2-J5-PDC patient-derived pancreatic carcinoma cell line growth inhibition [RAS]
Conditions: for IC50: curve of first compound; for viability, T/C: stronger effect = lower value
Procedure, shortened: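 Agents were tested in combination matrices in half-log decrements from a top concentration at or near clinical Cmax (10 microM if undetermined). Targets were multi-cell spheroids of tumour lines plus HUVEC and MSC stromal cells.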
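Further: compound exposure lasted seven days before the viability read.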
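Wherever viability, T/C is given: spheroids also contain HUVEC endothelial cells and mesenchymal stem cells as stroma.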

With `CC(C)NCC(C(=O)N1CCN(c2ncnc3c2C(C)CC3O)CC1)c1ccc(Cl)cc1` (centres undefined) + CCn1c(-c2cc(N3CCN(C)CC3)cnc2C(C)OC)c2c3cc(ccc31)-c1csc(n1)CC(NC(=O)C1CC1C)C(=O)N1CCCC(N1)C(=O)OCC(C)(C)C2 the IC50 (second compound 0.000949 µM) was under 0.0316 µM, the IC50 (second compound 0.003 µM) was under 0.0316 µM and the IC50 (second compound 0.00949 µM) was under 0.0316 µM. The IC50 (second compound 0.03 µM) was under 0.0316 µM, the IC50 (second compound 0.0949 µM) was under 0.0316 µM and the IC50 (second compound 0.3 µM) was under 0.0316 µM. For the same molecule, the viability, T/C (second compound 0.000949 µM, first compound 0.0316 µM) was 33.8%, the viability, T/C (second compound 0.000949 µM, first compound 0.1 µM) was 38.8% and the viability, T/C (second compound 0.000949 µM, first compound 0.316 µM) was 35.5%. The viability, T/C (second compound 0.000949 µM, first compound 1 µM) was 23%, the viability, T/C (second compound 0.000949 µM, first compound 3.16 µM) was 15.5% and the viability, T/C (second compound 0.000949 µM, first compound 10 µM) was 18.1%. The viability, T/C (second compound 0.003 µM, first compound 0.0316 µM) was 41.8%, the viability, T/C (second compound 0.003 µM, first compound 0.1 µM) was 37% and the viability, T/C (second compound 0.003 µM, first compound 0.316 µM) was 36%. The viability, T/C (second compound 0.003 µM, first compound 1 µM) was 15%, the viability, T/C (second compound 0.003 µM, first compound 3.16 µM) was 6.94% and the viability, T/C (second compound 0.003 µM, first compound 10 µM) was 11.1%. The viability, T/C (second compound 0.00949 µM, first compound 0.0316 µM) was 38.7%, the viability, T/C (second compound 0.00949 µM, first compound 0.1 µM) was 33.9% and the viability, T/C (second compound 0.00949 µM, first compound 0.316 µM) was 28%. For the same molecule, the viability, T/C (second compound 0.00949 µM, first compound 1 µM) was 8.72%, the viability, T/C (second compound 0.00949 µM, first compound 3.16 µM) was 4.36% and the viability, T/C (second compound 0.00949 µM, first compound 10 µM) was 7.59%. It also gave a viability, T/C (second compound 0.03 µM, first compound 0.0316 µM) of 20.9%, a viability, T/C (second compound 0.03 µM, first compound 0.1 µM) of 21.9% and a viability, T/C (second compound 0.03 µM, first compound 0.316 µM) of 16.6%. The viability, T/C (second compound 0.03 µM, first compound 1 µM) was 5.37%, the viability, T/C (second compound 0.03 µM, first compound 3.16 µM) was 5.01% and the viability, T/C (second compound 0.03 µM, first compound 10 µM) was 1.08%. For the same molecule, the viability, T/C (second compound 0.0949 µM, first compound 0.0316 µM) was 11.8%, the viability, T/C (second compound 0.0949 µM, first compound 0.1 µM) was 13.1% and the viability, T/C (second compound 0.0949 µM, first compound 0.316 µM) was 8.25%. It also gave a viability, T/C (second compound 0.0949 µM, first compound 1 µM) of 4.84%, a viability, T/C (second compound 0.0949 µM, first compound 3.16 µM) of 4.83% and a viability, T/C (second compound 0.0949 µM, first compound 10 µM) of 1.9%. It also gave a viability, T/C (second compound 0.3 µM, first compound 0.0316 µM) of 10.5%, a viability, T/C (second compound 0.3 µM, first compound 0.1 µM) of 11% and a viability, T/C (second compound 0.3 µM, first compound 0.316 µM) of 8.33%. For the same molecule, the viability, T/C (second compound 0.3 µM, first compound 1 µM) was 2.49%, the viability, T/C (second compound 0.3 µM, first compound 3.16 µM) was 4.32% and the viability, T/C (second compound 0.3 µM, first compound 10 µM) was 1.07%.

`CC(C)NCC(C(=O)N1CCN(c2ncnc3c2C(C)CC3O)CC1)c1ccc(Cl)cc1` (centres undefined) + C=CC(=O)N1CCN(c2nc(OCC3CCCN3C)nc3c(F)c(-c4nc(N)cc(C)c4C(F)(F)F)c(Cl)cc23)C(C)C1 gave an IC50 (second compound 0.00316 µM) of over 10 µM, an IC50 (second compound 0.01 µM) of over 10 µM and an IC50 (second compound 0.0316 µM) of over 10 µM. The IC50 (second compound 0.1 µM) was over 10 µM, the IC50 (second compound 0.316 µM) was over 10 µM and the IC50 (second compound 1 µM) was over 10 µM. It also gave a viability, T/C (second compound 0.00316 µM, first compound 0.0316 µM) of 95.9%, a viability, T/C (second compound 0.00316 µM, first compound 0.1 µM) of 93.2% and a viability, T/C (second compound 0.00316 µM, first compound 0.316 µM) of 99%. The viability, T/C (second compound 0.00316 µM, first compound 1 µM) was 79.7%, the viability, T/C (second compound 0.00316 µM, first compound 3.16 µM) was 66.4% and the viability, T/C (second compound 0.00316 µM, first compound 10 µM) was 54.6%. It also gave a viability, T/C (second compound 0.01 µM, first compound 0.0316 µM) of 77%, a viability, T/C (second compound 0.01 µM, first compound 0.1 µM) of 115% and a viability, T/C (second compound 0.01 µM, first compound 0.316 µM) of 95.6%. The viability, T/C (second compound 0.01 µM, first compound 1 µM) was 92.9%, the viability, T/C (second compound 0.01 µM, first compound 3.16 µM) was 69.1% and the viability, T/C (second compound 0.01 µM, first compound 10 µM) was 55%. It also gave a viability, T/C (second compound 0.0316 µM, first compound 0.0316 µM) of 84.1%, a viability, T/C (second compound 0.0316 µM, first compound 0.1 µM) of 101% and a viability, T/C (second compound 0.0316 µM, first compound 0.316 µM) of 91.8%. The viability, T/C (second compound 0.0316 µM, first compound 1 µM) was 94.7%, the viability, T/C (second compound 0.0316 µM, first compound 3.16 µM) was 61.2% and the viability, T/C (second compound 0.0316 µM, first compound 10 µM) was 55.1%. For the same molecule, the viability, T/C (second compound 0.1 µM, first compound 0.0316 µM) was 88.7%, the viability, T/C (second compound 0.1 µM, first compound 0.1 µM) was 104% and the viability, T/C (second compound 0.1 µM, first compound 0.316 µM) was 113%. It also gave a viability, T/C (second compound 0.1 µM, first compound 1 µM) of 89%, a viability, T/C (second compound 0.1 µM, first compound 3.16 µM) of 67.1% and a viability, T/C (second compound 0.1 µM, first compound 10 µM) of 49.6%. For the same molecule, the viability, T/C (second compound 0.316 µM, first compound 0.0316 µM) was 105%, the viability, T/C (second compound 0.316 µM, first compound 0.1 µM) was 138% and the viability, T/C (second compound 0.316 µM, first compound 0.316 µM) was 92.4%. For the same molecule, the viability, T/C (second compound 0.316 µM, first compound 1 µM) was 72.1%, the viability, T/C (second compound 0.316 µM, first compound 3.16 µM) was 59.6% and the viability, T/C (second compound 0.316 µM, first compound 10 µM) was 49.9%. The viability, T/C (second compound 1 µM, first compound 0.0316 µM) was 103%, the viability, T/C (second compound 1 µM, first compound 0.1 µM) was 80.2% and the viability, T/C (second compound 1 µM, first compound 0.316 µM) was 104%. It also gave a viability, T/C (second compound 1 µM, first compound 1 µM) of 71.3%, a viability, T/C (second compound 1 µM, first compound 3.16 µM) of 61.9% and a viability, T/C (second compound 1 µM, first compound 10 µM) of 55.3%.
